Results reported in PMC8954944 (Molecules, 2022).

Assays:
[1] = system: c-myc G-quadruplex DNA (DNA, G4) TGGGGAGGGTGGGGAGGGTGGGGAAGG; assay: fluorescent intercalator displacement; conditions: 100 mM KCl, thiazole orange 1 μM displaced, DNA 0.5 μM
[2] = system: c-myc G-quadruplex DNA (DNA, G4) TGGGGAGGGTGGGGAGGGTGGGGAAGG; assay: UV-vis titration; conditions: 100 mM KCl
[3] = system: c-myc G-quadruplex DNA FRET probe (FAM/TAMRA) (DNA, G4) TGGGGAGGGTGGGGAGGGTGGGGAAGG; assay: FRET melting; conditions: 100 mM KCl, 10 mM Na3AsO4; 10 mM Tris-HCl pH 7.4; 0.2 μM DNA; complex 0.15 or 0.30 μM, not given
[4] = system: human glioblastoma U87 cells; assay: MTT assay, U87; format: cell-based; conditions: 72 h, 570 nm
[5] = system: human breast cancer MCF-7 cells; assay: MTT assay, MCF-7; format: cell-based; conditions: 72 h, 570 nm
[6] = system: human normal liver cells; assay: Toxicity to human normal liver cells; conditions: read-out: IC50 human normal liver cells
[7] = system: human liver carcinoma HepG2 cells; assay: MTT assay, HepG2; format: cell-based; conditions: 72 h, 570 nm
[8] = system: human keratinocyte Hacat cells; assay: Cytotoxic activity against Hacat cells; format: cell-based; conditions: 72 h incubation
Procedure: The cytotoxic activity of the ligands and arene Ru(II)-modified compounds […] 1 . The cytotoxic activities of complexes against human keratinocyte […] 72 h incubation. Comp. L1 L2 3 6 […] 7. Multiple gene expression in glioblastoma multiforme Figure S20. Multiple gene expression in glioblastoma multiforme(Copyright © 2017 […], Boxi Kang. Zhang's Lab.). The darker the color, the higher the gene expression in glioblastoma multiforme. As shown in the heat map, c-myc gene is highly expressed in glioblastoma multiforme (GBM) compared with other G-quadruplex DNA (Tel, Bcl-2, c-kit, k-ras). 8. […]

[9] = system: human lung cancer A549 cells; assay: MTT assay, A549; format: cell-based; conditions: 72 h, 570 nm
[10] = system: c-myc G-quadruplex DNA; assay: UV–vis absorption titration with c-myc G-quadruplex DNA; format: binding; conditions: 10 mM Tris-HCl buffer (pH 7.4), 100 mM KCl, [DNA]=100 μM
Procedure: Electron spectroscopy is one of the most widely used techniques to evaluate the binding ability between metal complexes and DNA. UV–vis spectra titration experiments were conducted to further clarify the binding behavior of these complexes with c-myc G-quadruplex DNA.
The intramolecular c-myc G-quadruplex DNA structure was prepared by incubating Pu22 in a 10 mM Tris-HCl buffer (pH 7.4) containing 100 mM KCl, which was heated to 95 °C for 5 min, cooled to room temperature overnight, and stored at 4 °C for 24 h. The binding parameters of the arene Ru(II) complexes and c-myc G-quadruplex DNA were measured at room temperature using the UV–vis absorption spectra (Shimadzu UV-2550 spectrophotometer). […] The intrinsic binding constant (Kb) was calculated using the following:[DNA]/(εa − εf) = [DNA]/(εb − εf) + 1/[Kb(εb − εf)](2)
In the formula, εa, εf, and εb are the apparent coefficients, and the free and fully bound forms of the metal complex extinction coefficients, respectively. […] Kb is the ratio of the slope to the intercept.

[11] = 10 mM Tris-HCl pH 7.4, room temperature
[12] = 10 mM Tris-HCl pH 7.4, room temperature, 20 μM complex

| DC50 [1, 11] | ΔTm [3] | IC50 [4] | IC50 [5] | IC50 [7] | IC50 [9] | Kb [2, 12] | SMILES | further results |
| --- | --- | --- | --- | --- | --- | --- | --- | --- |
| 9.93 µM | 15.05 °C | – | – | – | – | – | Cc1ccccc1.Fc1cccc(-c2nc3c4cccnc4c4ncccc4c3[nH]2)c1F.[Cl-].[Ru+2] | Kb [2]: ~ 110 × 10^6 M^-1 |
| – | – | 14.3 ± 0.47 µM | 4.25 ± 0.18 µM | 0.29 ± 0.01 µM | 7.99 ± 0.05 µM | – | Fc1cccc(-c2nc3c4cccnc4c4ncccc4c3[nH]2)c1F [L1, 2-(2,3-Di-fluorophenyl) Imidazole [4,5f][1,10]-Phenanthroline] | IC50 [6]: 0.34 µM; IC50 [8]: 1.85 ± 0.03 µM |
| – | – | 5.87 ± 0.27 µM | 1.48 ± 0.09 µM | 0.12 ± 0.01 µM | 3.42 ± 0.13 µM | – | Fc1ccc(-c2nc3c4cccnc4c4ncccc4c3[nH]2)c(F)c1 [L2, 2-(2,4-Di-fluorophenyl) Imidazole[4,5f][1,10]-Phenanthroline] | IC50 [6]: 0.18 µM; IC50 [8]: 2.72 ± 0.06 µM; UV absorption peak of the ligand after the addition of DNA [10]: did not change significantly |
| 15.6 µM | 0.4 °C | – | – | – | – | ~ 14.6 × 10^6 M^-1 | Cc1ccc(C(C)C)cc1.Fc1ccc(-c2nc3c4cccnc4c4ncccc4c3[nH]2)c(F)c1.[Cl-].[Ru+2] | – |
| – | 7.23 °C | – | – | – | – | ~ 48.3 × 10^6 M^-1 | Fc1ccc(-c2nc3c4cccnc4c4ncccc4c3[nH]2)c(F)c1.[Cl-].[Ru+2].c1ccccc1 | DC50 ([1]; 10 mM Tris-HCl pH 7.4, text b19 prints 7.8): 7.6 µM |
| 10.8 µM | 6.03 °C | – | – | – | – | – | Cc1ccccc1.Fc1ccc(-c2nc3c4cccnc4c4ncccc4c3[nH]2)c(F)c1.[Cl-].[Ru+2] | Kb [2]: ~ 41.1 × 10^6 M^-1 |
| 10.26 µM | 5.07 °C | – | – | – | – | ~ 134 × 10^6 M^-1 | Cc1ccc(C(C)C)cc1.Fc1cccc(-c2nc3c4cccnc4c4ncccc4c3[nH]2)c1F.[Cl-].[Ru+2] | – |
| – | – | – | – | – | – | – | Fc1ccc(-c2nc3c4cccnc4c4ncccc4c3[nH]2)c(F)c1 | binding ([2]; 10 mM Tris-HCl pH 7.4, DNA 100 μM, no significant absorption change): weak |
| 6.6 µM | 13.09 °C | – | – | – | – | ~ 67.5 × 10^6 M^-1 | Fc1cccc(-c2nc3c4cccnc4c4ncccc4c3[nH]2)c1F.[Cl-].[Ru+2].c1ccccc1 | – |

| SMILES | DC50 [1, 11] | ΔTm [3] | IC50 [4] | IC50 [5] | IC50 [7] | IC50 [9] | Kb [2, 12] | further results |
| --- | --- | --- | --- | --- | --- | --- | --- | --- |
| N.N.[Cl][Pt][Cl] [Cisplatin, reference compound] | – | – | 32.6 ± 0.85 µM | 15.3 ± 0.18 µM | 9.9 ± 0.06 µM | 17.3 ± 0.26 µM | – | – |
